Among the data in paper PMC6146087, “α-Glucosidase Inhibitors From the Coral-Associated Fungus Aspergillus terreus” (Frontiers in Chemistry, 2018) are IC50 values, retold here.

The assay addresses T1, α-glucosidase enzyme from Saccharomyces cerevisiae (Saccharomyces cerevisiae, UniProt P53341).
T1 construct: purchased Sigma Aldrich, USA
In words: biochemical. Here is the method: The α-glucosidase enzyme from Saccharomyces cerevisiae (Sigma Aldrich, USA) solution (1.5 U/mL) was prepared by dissolving the α-glucosidase in […] phosphate buffer (pH 6.8). The α-glucosidase enzyme solution (20 μL), test compounds (10 μL) and buffer (40 μL) were pipetted and mixed in a 96 well microtiter plate. The mixture was incubated at 37°C for 10 min. After incubation, p-nitrophenyl-α-D-glucopyranoside (PNP-G) substrate solution (10 μL, in 20 mM phosphate buffer) was added. The increment of absorbance due to the hydrolysis of PNP-G by α-glucosidase was measured at the wavelength of 410 nm with a microplate reader (Thermo Scientific, Waltham, MA). […] The α-glucosidase inhibitory activity was expressed as percentage inhibition and was calculated using the following formula: inhibition (%) = [1–(ODsample/ODblank)] × 100.

T1 sequence (P53341 whole entry): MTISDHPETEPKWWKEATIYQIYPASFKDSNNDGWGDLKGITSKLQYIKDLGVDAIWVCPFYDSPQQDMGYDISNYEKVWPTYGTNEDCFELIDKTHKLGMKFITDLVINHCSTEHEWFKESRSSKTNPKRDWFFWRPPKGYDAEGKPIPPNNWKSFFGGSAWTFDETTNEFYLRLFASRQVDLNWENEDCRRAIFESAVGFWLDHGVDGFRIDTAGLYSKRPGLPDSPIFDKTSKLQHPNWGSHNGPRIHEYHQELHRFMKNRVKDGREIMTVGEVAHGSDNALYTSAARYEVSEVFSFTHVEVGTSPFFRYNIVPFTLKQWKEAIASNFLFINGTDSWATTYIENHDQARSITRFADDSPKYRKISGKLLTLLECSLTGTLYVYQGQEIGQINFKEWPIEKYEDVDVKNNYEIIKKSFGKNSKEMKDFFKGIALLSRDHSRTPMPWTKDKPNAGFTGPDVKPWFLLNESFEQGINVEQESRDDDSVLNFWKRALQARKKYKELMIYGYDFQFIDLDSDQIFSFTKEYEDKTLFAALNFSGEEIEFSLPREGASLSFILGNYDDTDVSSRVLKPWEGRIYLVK

As a reminder, the IC50 is the midpoint of a concentration-inhibition curve. A lower IC50 goes with higher potency. As to `COC1OC(=O)C(c2ccc(O)cc2)=C1Cc1ccc(O)c(CCC(C)(C)O)c1` (stereo not drawn) [compound 5, Asperteretone E], the IC50 is 48.9 ± 7.3 µM.
For `COc1ccc(C2=C(Cc3ccc4c(c3)CC(C(C)(C)O)O4)[C@@H](OC)OC2=O)cc1` (single isomer, unassigned; (-)) [3a, (−)-Asperteretone C], the IC50 is 52.2 ± 4.6 µM.
The result for `COC(=O)[C@H](Cc1ccc(O)c(CC=C(C)C)c1)[C@@H](C(=O)O)c1ccc(O)cc1` [1b, (+)-Asperteretone A] reads 53.1 ± 1.4 µM.
To `CO[C@@H]1OC(=O)C(c2ccc(O)cc2)=C1Cc1ccc(O)c(CC=C(C)C)c1` [2b, (+)-Asperteretone B] belongs 19.2 ± 1.9 µM.
Turning to `COC(=O)[C@@H](Cc1ccc(O)c(CC=C(C)C)c1)[C@H](C(=O)O)c1ccc(O)cc1` [1a, (−)-Asperteretone A], half-maximal inhibition (IC50) was put at 45.4 ± 3.8 µM. Against the preceding molecule, the IC50 is about 2.4-fold higher.
To `CO[C@@H]1OC(=O)C(c2ccc(O)cc2)=C1Cc1ccc2c(c1)CCC(C)(C)O2` [4b, (+)-Asperteretone D] belongs 18.9 ± 2.3 µM.
The result for `CO[C@H]1OC(=O)C(c2ccc(O)cc2)=C1Cc1ccc(O)c(CC=C(C)C)c1` [2a, (−)-Asperteretone B] reads 17.3 ± 2.4 µM; that for `COc1ccc(C2=C(Cc3ccc4c(c3)CC(C(C)(C)O)O4)[C@H](OC)OC2=O)cc1` (single isomer, unassigned; (+)) [3b, (+)-Asperteretone C], 49.8 ± 5.7 µM; that for `CO[C@H]1OC(=O)C(c2ccc(O)cc2)=C1Cc1ccc2c(c1)CCC(C)(C)O2` [4a, (−)-Asperteretone D], 15.7 ± 1.1 µM.
